Results published in patent US20160220602A1, “USE OF CHINESE MEDICINE PREPARATION IN PREPARING DRUG FOR PREVENTING AND/OR TREATING CROHN'S DISEASE” (TASLY PHARMACEUTICAL GROUP CO., LTD., priority 2013, published 2016).

Experiments:
Type in all cases: in vivo, SD rats
[1] = tested on: TNBS-induced SD rat Crohn's disease model; assay: DAI score in TNBS-caused Crohn's disease rat model; settings: TNBS model rats, 100 mg/kg
Experimental: Grouping: experiment was carried out by using two ways of intracolonic and intragastric administrations. […] There were 10 rats each group. Method for establishing rat model: referring to Morris method, TNBS was used to induce the SD rat Crohn's disease model (abbreviated as “TNBS model”). 24 hours before modeling, the SD rats were fasted but water was given. […] The rats of blank control group were normally fed with free access to water and the same volume of normal saline was given in the same administration routes by referring to the dosage regime of aforementioned treatment groups. The rats of model group were administrated with the same volume of normal saline in the same administration routes. […] (1) General Indices: weight change and stool (e.g. fecal occult blood, bloody stool and diarrhea) was observed every day to calculate DAI (disease activity index) score. DAI score=(weight loss percentage+stool character fraction+hematochezia fraction)/3 [table]

[2] = tested on: OXZ-induced SD rat Crohn's disease model; assay: DAI score in oxazolone-caused Crohn's disease rat model; set-up: key: DAI = (weight loss % + stool character + hematochezia scores)/3; settings: 100 mg/kg
Experimental: Grouping: the experiment was carried out by using two ways of intracolonic and intragastric administration. […] There were 10 rats each group. Method for establishing rat model: referring to the Heller method, OXZ was used to induce the SD rat Crohn's disease model (abbreviated as “OXZ model”). Neck and back skin of rats were shaved (2 cm×2 cm). Ethanol was used to prepare 5% (w/v) OXZ solution, and 0.3 ml resultant OXZ solution was dripped on the skin of rats. […] The sensitized rats were adaptively raised for 5 days, […] anesthetized by intraperitoneal injection of pentobarbital sodium. […] After completion, the rats were inverted by lifting tails for 60s to make the solution totally absorbed. […] If the rats manifested dark hair color, body weight loss, poor appetite, lassitude, watery stool or diarrhea, the model establishment was success. Administration method: after successful model establishment by OXZ, the drug was given to rats. The TCM preparation k saline solutions at corresponding dose were administered to the groups of preparation k of all doses and the […] saline solution, a positive drug, administrated to the positive control group. The rats of blank control group were normally fed, given with water and the same volume of normal saline was given in the same administration routes by referring to the dosage regime of aforesaid treatment groups. The rats of model group were administrated with the same volume of normal saline in the same administration routes. The dose of each group was as follows: […] group at 100 mg/kg rat weight, the TCM preparation k high-dose group at 2.023 g raw medicine/kg rat weight, the middle-dose group at 1.012 g raw medicine/kg rat weight and the low-dose group at 0.506 g raw medicine/kg rat weight. […] (1) General Indices: weight change and stool (e.g. stool occult blood, bloody stool and diarrhea) were observed every day to calculate DAI score. DAI score=(weight loss percentage+defecate character fraction+hematochezia fraction)/3 [table]

Gln in intestinal mucosa = Gln in intestinal mucosa by ELISA, OXZ model rats; settings: 100 mg/kg once per day, 11 days
Experimental: Grouping: the experiment was carried out by using two ways of intracolonic and intragastric administration. […] There were 10 rats each group. Method for establishing rat model: referring to the Heller method, OXZ was used to induce the SD rat Crohn's disease model (abbreviated as “OXZ model”). Neck and back skin of rats were shaved (2 cm×2 cm). Ethanol was used to prepare 5% (w/v) OXZ solution, and 0.3 ml resultant OXZ solution was dripped on the skin of rats. After the solution was air-dried naturally, skin allergy occurred in rats. The sensitized rats were adaptively raised for 5 days, […] anesthetized by intraperitoneal injection of pentobarbital sodium. […] After completion, the rats were inverted by lifting tails for 60s to make the solution totally absorbed. […] If the rats manifested dark hair color, body weight loss, poor appetite, lassitude, watery stool or diarrhea, the model establishment was success. Administration method: after successful model establishment by OXZ, the drug was given to rats. The TCM preparation k saline solutions at corresponding dose were administered to the groups of preparation k of all doses and the […] saline solution, a positive drug, administrated to the positive control group. […] Serum IFN-γ, IL-4, and Gln in intestinal mucosa were determined by ELISA in rats.

With `Nc1ccc(O)c(C(=O)O)c1` [mesalamine, Mesalamine] the “DAI score (Mean ± SD)” value ([1]; intracolonic, 0th day (1 day before model established)) was 0.000 ± 0.000, the “DAI score (Mean ± SD)” value ([1]; intracolonic, 2nd day) was 1.867 ± 0.571 and the “DAI score (Mean ± SD)” value ([1]; intracolonic, 3rd day) was 2.100 ± 0.754. For the same compound, the “DAI score (Mean ± SD)” value ([1]; intracolonic, 4th day) was 2.067 ± 0.7217, the “DAI score (Mean ± SD)” value ([1]; intracolonic, 5th day) was 1.733 ± 0.562 and the “DAI score (Mean ± SD)” value ([1]; intracolonic, 6th day) was 1.367 ± 0.532. For the same compound, the “DAI score (Mean ± SD)” value ([1]; intracolonic, 7th day) was 1.267 ± 0.467, the “DAI score (Mean ± SD)” value ([1]; intracolonic, 8th day) was 1.167 ± 0.360 and the “DAI score (Mean ± SD)” value ([1]; intracolonic, 9th day) was 1.067 ± 0.306. For the same compound, the “DAI score (Mean ± SD)” value ([1]; intracolonic, 10th day) was 1.000 ± 0.314, the “DAI score (Mean ± SD)” value ([1]; intracolonic, 11th day) was 0.933 ± 0.211 and the “DAI score (Mean ± SD)” value ([1]; intracolonic, 12th day) was 0.833 ± 0.236. The “DAI score (Mean ± SD)” value ([1]; intracolonic, 13th day) was 0.833 ± 0.236, the “DAI score (Mean ± SD)” value ([1]; intracolonic, 14th day) was 0.767 ± 0.353 and the “DAI score (Mean ± SD)” value ([1]; intracolonic, 15th day) was 0.733 ± 0.344. The “DAI score (Mean ± SD)” value ([1]; intragastric, 0th day (1 day before model established)) was 0.000 ± 0.000, the “DAI score (Mean ± SD)” value ([1]; intragastric, 2nd day) was 1.519 ± 0.412 and the “DAI score (Mean ± SD)” value ([1]; intragastric, 3rd day) was 1.481 ± 0.380. The “DAI score (Mean ± SD)” value ([1]; intragastric, 4th day) was 1.333 ± 0.333, the “DAI score (Mean ± SD)” value ([1]; intragastric, 5th day) was 1.111 ± 0.333 and the “DAI score (Mean ± SD)” value ([1]; intragastric, 6th day) was 1.037 ± 0.261. For the same compound, the “DAI score (Mean ± SD)” value ([1]; intragastric, 7th day) was 1.000 ± 0.236, the “DAI score (Mean ± SD)” value ([1]; intragastric, 8th day) was 0.963 ± 0.309 and the “DAI score (Mean ± SD)” value ([1]; intragastric, 9th day) was 0.889 ± 0.289. The “DAI score (Mean ± SD)” value ([1]; intragastric, 10th day) was 0.741 ± 0.324, the “DAI score (Mean ± SD)” value ([1]; intragastric, 15th day) was 0.481 ± 0.242 and the “DAI score (Mean ± SD)” value ([1]; intragastric, 16th day) was 0.481 ± 0.242. The “DAI score (Mean ± SD)” value ([1]; intragastric, 18th day) was 0.333 ± 0.236, the “DAI score (Mean ± SD)” value ([1]; intragastric, 19th day) was 0.259 ± 0.147 and the “DAI score (Mean ± SD)” value ([1]; intragastric, 20th day) was 0.222 ± 0.167. For the same compound, the “DAI score (Mean ± SD)” value ([2]; Table 14: OXZ model rats, intracolonic, 1st day) was 0.267 ± 0.263, the “DAI score (Mean ± SD)” value ([2]; Table 14: OXZ model rats, intracolonic, 2nd day) was 0.400 ± 0.378 and the “DAI score (Mean ± SD)” value ([2]; Table 14: OXZ model rats, intracolonic, 3rd day) was 0.300 ± 0.331. The “DAI score (Mean ± SD)” value ([2]; Table 14: OXZ model rats, intracolonic, 4th day) was 0.333 ± 0.385, the “DAI score (Mean ± SD)” value ([2]; Table 14: OXZ model rats, intracolonic, 5th day) was 0.800 ± 0.422 and the “DAI score (Mean ± SD)” value ([2]; Table 14: OXZ model rats, intracolonic, 7th day) was 1.700 ± 0.637. For the same compound, the “DAI score (Mean ± SD)” value ([2]; Table 14: OXZ model rats, intracolonic, 8th day) was 1.500 ± 0.593, the “DAI score (Mean ± SD)” value ([2]; Table 14: OXZ model rats, intracolonic, 9th day) was 0.733 ± 0.439 and the “DAI score (Mean ± SD)” value ([2]; Table 15, as titled: intracolonic, TNBS model rats, 1st day) was 0.600 ± 0.141. For the same compound, the “DAI score (Mean ± SD)” value ([2]; Table 15, as titled: intracolonic, TNBS model rats, 4th day) was 0.267 ± 0.211, the “DAI score (Mean ± SD)” value ([2]; Table 15, as titled: intracolonic, TNBS model rats, 5th day) was 1.000 ± 0.222 and the “DAI score (Mean ± SD)” value ([2]; Table 15, as titled: intracolonic, TNBS model rats, 8th day) was 1.967 ± 0.576. For the same compound, the “DAI score (Mean ± SD)” value ([2]; Table 15, as titled: intracolonic, TNBS model rats, 9th day) was 1.633 ± 0.429, the “DAI score (Mean ± SD)” value ([2]; Table 15, as titled: intracolonic, TNBS model rats, 10th day) was 1.267 ± 0.625 and the “DAI score (Mean ± SD)” value ([2]; Table 15, as titled: intracolonic, TNBS model rats, 11th day) was 1.067 ± 0.798. The “Gln in intestinal mucosa (Mean ± SD)” value (Gln in intestinal mucosa; intracolonic) was 124.06 ± 24.40 µmol/L and the “Gln in intestinal mucosa (Mean ± SD)” value (Gln in intestinal mucosa; intragastric) was 132.59 ± 41.74 µmol/L.
